Laboratory results reported in patent US9511074B2, “Methods of treating disorders associated with protein polymerization” (UNIVERSITY OF PITTSBURGH—OF THE COMMONWEALTH SYSTEM OF …, priority 2009, dated 2016).

Assays:
[1] = test system: ATZ in the liver; test: Hepatic load of ATZ in vivo in PiZ×GFP-LC3 mice (immunoblot, globule histology); parameters: species or system mouse
Description: Transgenic Mice PiZ mice that have been bred into the C57/BL6 background have been described previously (1). For the second and third series of experiments with CBZ we used PiZ mice that were re-derived onto the FVB/N background for a move into a new animal facility. The transgene that was used to generate the PiZ mouse is a genomic fragment of DNA that contains the coding regions of the ATZ gene together with introns and ˜2 kilobases of upstream and downstream flanking regions (10). […] In this perspective it is not an exact phenocopy of the classical form of AT deficiency. In particular it cannot be a model for the loss-of-function mechanisms associated with the classical form of AT deficiency. It is known to have abundant expression of ATZ in hepatocytes and other cell types that express ATZ in humans (11). In the liver there are abundant ATZ-containing intrahepatocytic globules and inflammation that is characteristic of what is seen in the human liver (11,12). […] Taken together, these observations indicate that the PiZ mouse is an appropriate model for the gain-of-toxic function mechanism that is responsible for liver damage in the classical form of AT deficiency. Indeed, the fact that these mice are endowed with endogenous AT function and therein normal levels of AT in the serum and body fluids make them an even more ‘pure’ model for liver damage by gain-of-toxic function. PiZ×GFP-LC3 mice, which generated green fluorescent autophagosomes, have been described previously (2). PiZ×IKKβ.hep were generated by mating of PiZ to IKKβ.hep, which has conditional hepatocyte-specific disruption of NF.B activation (M. Karin, 17). There is increased injury in the liver of these mice as evidenced by the hepatic hydroxyproline content, 153.3% of that in the PiZ mouse (FIG. 7).
Histology Sections of liver tissue were stained with hematoxylin and eosin, PAS, PAS after diastase treatment, TUNEL, PCNA, Ki67 and Sirius Red using standard techniques (18). Previous methods for staining with antibody to smooth muscle actin were used (19). Each was examined by the pathologist (GM) who was completely blinded to the experimental protocol. […] The number of inflammatory nodules, AT-containing globules and autophagosomes were each quantified blindly by counting cells in 6 microscopic fields of 10 different sections for each liver. The number of nuclei, as determined by Hoechst staining, was used to exclude the possibility that different numbers of cells were counted in liver sections from mice treated with CBZ as compared to controls. Hepatic hydroxyproline concentration was determined by a well-established protocol (20,21). […]
For immunoblot on liver, the liver was snap frozen in liquid nitrogen and stored at −80° C. […] Total protein concentration was measured by BCA assay (Pierce). […]

[2] = test system: ATZ in wild-type mouse embryonic fibroblast (MEF) cell line; test: ATZ levels in wild-type (Atg5+/+) MEF cell line; format: cell-based, murine
Description: Cell Lines The human epidermal HeLa cell line with doxycycline-regulated expression of ATZ (HTO/Z) has been described previously (1). HTO/M and HTO/Saar are HeLa cell lines with doxycycline-regulated expression of wild type AT and the AT Saar variant, respectively (1). A murine embryonic fibroblast cell line (MEF) with targeted disruption of Atg5 (2) was engineered for stable expression of ATZ using the previously described pRc/RSV-ATZ expression plasmid (3). A wild type MEF cell line was also engineered for stable expression of ATZ in the same way to serve as control. For experiments with CBZ, the inducible cell lines were cultured in the absence of doxycycline for at least 4 weeks for maximal expression of AT. The cells were then subcultured into separate monolayers in fresh complete growth medium and incubated for 48 hours in the absence or presence of CBZ or rapamycin (RAP). CBZ or RAP were added to the growth medium. The duration of incubation with CBZ was determined to be optimal at 48 hours based on experiments in which the duration was varied from 12 to 72 hours. Doses of CBZ were based on previous studies of its effects in cell lines (5,6). […]
For immunoblot analysis to detect AT, GAPDH or LC3, cells were lysed in 50 mM Tris-HCl, 150 mM NaCl, 1% NP-40, pH 8.0. Protein levels were quantified using the BCA protein assay (Pierce Biotechnology, Rockford, Ill.). […]

[3] = test system: PiZ mice; test: Pulmonary fibrosis in PiZ mice (Sirius Red staining with quantitative morphometry); format: in vivo, mouse; conditions: 3-month-old PiZ mice, 200 mg/kg/day, 5 days per week for 3 weeks
Description: Experiments were performed to determine if CBZ can mediate a decrease in lung fibrosis in the PiZ mouse in vivo. 3-month-old PiZ mice were treated 5 days per week for 3 weeks with diluent DMSO or CBZ 200 mg/kg/day (n=3-8 mice per group). In this series of experiments lung fibrosis was assayed by Sirius Red staining with quantitative morphometry.

[4] = PiZ×GFP-LC3 mice, 250 mg kg-1 day-1 for 2 weeks by gavage

In the case of `NC(=O)N1c2ccccc2C=Cc2ccccc21` [CBZ, 5H-dibenz [b,f]azepine-5-carboxamide], the “intrahepatocytic ATZ-containing globules” value [1, 4] is reported as “marked decrease”, the “total, insoluble, and soluble ATZ in the liver” value [1, 4] is reported as “marked decrease” and the “decrease in globule-containing hepatocytes, factor” value ([1]; quantitative morphometry, 250 mg kg-1 day-1 for 2 weeks, P<0.001) is reported as 3.36. The “levels of insoluble ATZ” value ([2]; wild-type MEF cell line) was “decrease”, the “levels of soluble ATZ” value ([2]; wild-type MEF cells) was “decrease” and the “Sirius red staining of lung (pulmonary fibrosis)” value [3] was “statistically significant reduction”.
